# Test results: patent US11945822B2, “Pyrazolo-triazine and/or pyrazolo-pxrimidine derivatives as selective inhibitor of cyclin dependent kinase” (QURIENT CO., LTD., priority 2018, dated 2024)
# Target: T1, CDK2/Cyclin A (Homo sapiens, UniProt P24941)
# T1 construct: purchased Invitrogen PV6290
# Test: Enzymatic assay for CDK2 (FRET based LANCE Ultra kinase assay)
# Format: biochemical
# Settings: read-out: CDK2 enzymatic activity (IC50 range)
# How it was run: (§1)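 TR-FRET (LANCE Ultra) kinase assay at ATP Km, ULight-MBP peptide substrate (68 nM), 8-dose 4-fold compound series in DMSO. Enzymes: […]; 60 min at 23° C., stopped with EDTA plus Eu-anti-phospho-MBP antibody, read 665/615 nm after 60 min.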
row,IC50 [µM],Structure (SMILES)
1,0.1 to 1,CC(C)c1cnn2c(NCc3ccccc3Nc3ccccc3)nc(N3CCC(N)CC3)nc12 [Compound 61]
2,0.1 to 1,CC(C)c1cnn2c(NCc3ccccc3-c3cc4ccccc4[nH]3)nc(OC3CCN(C)CC3)nc12 [Compound 115]
3,0.1 to 1,CC(C)c1cnn2c(NCc3ccccc3N(C)c3ccccc3)nc(N3CCC(N)CC3)nc12 [Compound 63]
4,> 1,CC(C)c1cnn2c(NCc3ccccc3-n3cccn3)nc(-c3ccc(Cl)c(C4CCNCC4)c3)nc12 [Compound 170]

# System: MV4-11
# Test: Cellular MV4-11 viability assay (CellTiter-Glo, 72 hours)
# Format: cell-based
# Settings: Homo sapiens
# How it was run: (§2)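 CellTiter-Glo luminescence read in duplicate after 72 h compound exposure (37 °C, 5% CO2); DMSO-only control, final DMSO under 0.1%.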
row,IC50 [µM],Structure (SMILES)
1,< 1,CC(C)c1cnn2c(NCc3ccccc3-c3cc4ccccc4[nH]3)nc(OC3CCN(C)CC3)nc12 [Compound 115]
2,< 1,CC(C)c1cnn2c(NCc3ccccc3-n3cccn3)nc(-c3ccc(Cl)c(C4CCNCC4)c3)nc12 [Compound 170]

# System: RPMI-8226
# Test: Cellular RPMI-8226 viability assay (CellTiter-Glo, 72 hours)
# Format: cell-based
# Settings: Homo sapiens
# How it was run: as §2
row,IC50 [µM],Structure (SMILES)
1,1 to 10,CC(C)c1cnn2c(NCc3ccccc3Nc3ccccc3)nc(N3CCC(N)CC3)nc12 [Compound 61]
2,1 to 10,CC(C)c1cnn2c(NCc3ccccc3-c3cc4ccccc4[nH]3)nc(OC3CCN(C)CC3)nc12 [Compound 115]
3,1 to 10,CC(C)c1cnn2c(NCc3ccccc3N(C)c3ccccc3)nc(N3CCC(N)CC3)nc12 [Compound 63]
4,1 to 10,CC(C)c1cnn2c(NCc3ccccc3-n3cccn3)nc(-c3ccc(Cl)c(C4CCNCC4)c3)nc12 [Compound 170]

# System: MOLT-4
# Test: Cellular MOLT-4 viability assay (CellTiter-Glo, 72 hours)
# Format: cell-based
# Settings: Homo sapiens, MOLT4 viability assay
# How it was run: as §2
row,IC50 [µM],Structure (SMILES)
1,1 to 10,CC(C)c1cnn2c(NCc3ccccc3Nc3ccccc3)nc(N3CCC(N)CC3)nc12 [Compound 61]
2,1 to 10,CC(C)c1cnn2c(NCc3ccccc3-c3cc4ccccc4[nH]3)nc(OC3CCN(C)CC3)nc12 [Compound 115]
3,> 10,CC(C)c1cnn2c(NCc3ccccc3N(C)c3ccccc3)nc(N3CCC(N)CC3)nc12 [Compound 63]
4,1 to 10,CC(C)c1cnn2c(NCc3ccccc3-n3cccn3)nc(-c3ccc(Cl)c(C4CCNCC4)c3)nc12 [Compound 170]

# Target: T2, CDK1/Cyclin B (Homo sapiens, UniProt P06493)
# T2 construct: purchased Invitrogen PR4768C
# T2 sequence (P06493 whole entry): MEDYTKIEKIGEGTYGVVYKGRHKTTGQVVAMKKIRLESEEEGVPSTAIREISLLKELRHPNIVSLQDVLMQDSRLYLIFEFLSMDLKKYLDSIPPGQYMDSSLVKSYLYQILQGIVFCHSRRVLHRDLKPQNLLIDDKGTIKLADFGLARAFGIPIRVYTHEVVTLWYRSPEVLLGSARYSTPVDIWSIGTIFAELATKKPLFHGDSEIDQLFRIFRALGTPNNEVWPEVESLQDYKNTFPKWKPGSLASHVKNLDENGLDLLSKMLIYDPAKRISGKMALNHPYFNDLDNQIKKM
# T2 sequence (P14635 whole entry partner): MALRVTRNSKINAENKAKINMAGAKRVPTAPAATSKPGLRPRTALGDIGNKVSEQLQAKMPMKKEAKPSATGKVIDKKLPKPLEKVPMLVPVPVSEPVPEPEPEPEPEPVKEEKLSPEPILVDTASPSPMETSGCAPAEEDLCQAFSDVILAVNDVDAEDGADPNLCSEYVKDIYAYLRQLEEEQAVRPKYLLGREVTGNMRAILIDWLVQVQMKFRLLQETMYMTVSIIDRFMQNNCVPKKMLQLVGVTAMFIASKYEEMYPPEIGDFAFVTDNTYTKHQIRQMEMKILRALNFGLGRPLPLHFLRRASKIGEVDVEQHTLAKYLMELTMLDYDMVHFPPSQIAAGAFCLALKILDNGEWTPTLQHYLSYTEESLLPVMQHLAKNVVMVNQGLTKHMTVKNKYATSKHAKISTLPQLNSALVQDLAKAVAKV
# Test: Enzymatic assay for CDK1 (FRET based LANCE Ultra kinase assay)
# Format: biochemical
# Settings: read-out: CDK1 enzymatic activity (IC50 range)
# How it was run: as §1
row,IC50 [µM],Structure (SMILES)
1,> 1,CC(C)c1cnn2c(NCc3ccccc3Nc3ccccc3)nc(N3CCC(N)CC3)nc12 [Compound 61]
2,> 1,CC(C)c1cnn2c(NCc3ccccc3-c3cc4ccccc4[nH]3)nc(OC3CCN(C)CC3)nc12 [Compound 115]
3,0.1 to 1,CC(C)c1cnn2c(NCc3ccccc3N(C)c3ccccc3)nc(N3CCC(N)CC3)nc12 [Compound 63]
4,> 1,CC(C)c1cnn2c(NCc3ccccc3-n3cccn3)nc(-c3ccc(Cl)c(C4CCNCC4)c3)nc12 [Compound 170]

# Target: T3, CDK5/p25 (Homo sapiens, UniProt Q00535)
# T3 construct: purchased Invitrogen PR8543B
# T3 sequence (Q00535 whole entry): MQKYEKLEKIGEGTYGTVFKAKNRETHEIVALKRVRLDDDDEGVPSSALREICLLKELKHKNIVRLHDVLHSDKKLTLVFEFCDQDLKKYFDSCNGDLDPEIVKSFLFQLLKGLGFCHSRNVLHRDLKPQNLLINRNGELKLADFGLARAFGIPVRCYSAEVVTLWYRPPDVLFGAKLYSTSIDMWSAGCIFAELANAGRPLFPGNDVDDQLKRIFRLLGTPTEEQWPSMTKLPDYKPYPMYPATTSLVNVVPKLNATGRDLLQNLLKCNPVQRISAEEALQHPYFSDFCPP
# T3 sequence (Q15078 99-307 partner limits assumed): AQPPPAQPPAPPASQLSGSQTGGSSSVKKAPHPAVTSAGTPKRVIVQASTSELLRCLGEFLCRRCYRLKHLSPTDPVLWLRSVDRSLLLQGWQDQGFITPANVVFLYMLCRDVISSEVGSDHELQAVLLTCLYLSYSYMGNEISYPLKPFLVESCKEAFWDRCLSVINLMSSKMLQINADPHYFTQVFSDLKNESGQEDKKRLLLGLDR
# Test: Enzymatic assay for CDK5 (FRET based LANCE Ultra kinase assay)
# Format: biochemical
# Settings: read-out: CDK5 enzymatic activity (IC50 range)
# How it was run: as §1
row,IC50 [µM],Structure (SMILES)
1,0.1 to 1,CC(C)c1cnn2c(NCc3ccccc3Nc3ccccc3)nc(N3CCC(N)CC3)nc12 [Compound 61]
2,0.1 to 1,CC(C)c1cnn2c(NCc3ccccc3-c3cc4ccccc4[nH]3)nc(OC3CCN(C)CC3)nc12 [Compound 115]
3,0.1 to 1,CC(C)c1cnn2c(NCc3ccccc3N(C)c3ccccc3)nc(N3CCC(N)CC3)nc12 [Compound 63]
4,0.1 to 1,CC(C)c1cnn2c(NCc3ccccc3-n3cccn3)nc(-c3ccc(Cl)c(C4CCNCC4)c3)nc12 [Compound 170]

# System: H460
# Test: Cellular H460 viability assay (CellTiter-Glo, 72 hours)
# Format: cell-based
# Settings: Homo sapiens, NCI-H460
# How it was run: as §2
row,IC50 [µM],Structure (SMILES)
1,< 1,CC(C)c1cnn2c(NCc3ccccc3Nc3ccccc3)nc(N3CCC(N)CC3)nc12 [Compound 61]
2,< 1,CC(C)c1cnn2c(NCc3ccccc3N(C)c3ccccc3)nc(N3CCC(N)CC3)nc12 [Compound 63]
3,< 1,CC(C)c1cnn2c(NCc3ccccc3-n3cccn3)nc(-c3ccc(Cl)c(C4CCNCC4)c3)nc12 [Compound 170]

# Target: T4, CDK7/Cyclin H/MNAT1 (Homo sapiens, UniProt P50613)
# T4 construct: purchased Invitrogen PR6749B
# T4 sequence (P50613 whole entry): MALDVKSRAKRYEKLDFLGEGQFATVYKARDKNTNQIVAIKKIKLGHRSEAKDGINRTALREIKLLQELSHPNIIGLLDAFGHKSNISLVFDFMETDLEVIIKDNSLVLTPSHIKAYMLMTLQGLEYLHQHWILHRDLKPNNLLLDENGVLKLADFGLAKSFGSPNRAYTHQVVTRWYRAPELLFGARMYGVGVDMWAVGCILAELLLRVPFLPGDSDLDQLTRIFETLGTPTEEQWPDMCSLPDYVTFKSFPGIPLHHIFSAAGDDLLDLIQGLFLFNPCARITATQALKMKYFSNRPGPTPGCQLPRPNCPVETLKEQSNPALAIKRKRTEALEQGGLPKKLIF
# T4 sequence (P51946 whole entry partner): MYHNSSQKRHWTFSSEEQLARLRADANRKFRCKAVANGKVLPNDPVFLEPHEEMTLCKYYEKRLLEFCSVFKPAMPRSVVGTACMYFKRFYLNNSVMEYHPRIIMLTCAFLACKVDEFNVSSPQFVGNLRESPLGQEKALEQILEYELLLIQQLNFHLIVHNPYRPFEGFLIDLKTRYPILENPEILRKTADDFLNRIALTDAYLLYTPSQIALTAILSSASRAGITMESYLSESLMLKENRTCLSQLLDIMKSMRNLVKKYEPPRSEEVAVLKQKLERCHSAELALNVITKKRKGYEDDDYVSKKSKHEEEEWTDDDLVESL
# T4 sequence (P51948 whole entry partner): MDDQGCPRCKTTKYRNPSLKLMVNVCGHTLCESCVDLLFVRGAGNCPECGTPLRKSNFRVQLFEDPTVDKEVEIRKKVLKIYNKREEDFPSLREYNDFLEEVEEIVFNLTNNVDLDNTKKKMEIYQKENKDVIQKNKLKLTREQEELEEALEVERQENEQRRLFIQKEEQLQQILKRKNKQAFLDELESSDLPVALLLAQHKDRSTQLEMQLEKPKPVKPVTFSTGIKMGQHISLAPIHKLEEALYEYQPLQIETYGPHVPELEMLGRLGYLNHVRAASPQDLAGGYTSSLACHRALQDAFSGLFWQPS
# Test: Enzymatic assay for CDK7 (FRET based LANCE Ultra kinase assay)
# Format: biochemical
# Settings: CDK7 over CDK1
# How it was run: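 Inhibition was measured at Km ATP by time-resolved FRET between a Eu anti-phospho antibody and a phosphorylated ULight peptide. The enzyme was the purified CDK7/cyclin complex, and data were curve-fitted.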
row,Structure (SMILES),CDK1/CDK7: Selectivity of CDK7 inhibition over CDK1 inhibition
1,CC(C)c1cnn2c(NCc3ccccc3Nc3ccccc3)nc(N3CCC(N)CC3)nc12 [Compound 61],"B (B=less than 200 fold, but greater than 20 fold)"
2,CC(C)c1cnn2c(NCc3ccccc3-c3cc4ccccc4[nH]3)nc(OC3CCN(C)CC3)nc12 [Compound 115],A (A=greater than 200 fold)
3,CC(C)c1cnn2c(NCc3ccccc3N(C)c3ccccc3)nc(N3CCC(N)CC3)nc12 [Compound 63],"B (B=less than 200 fold, but greater than 20 fold)"
4,CC(C)c1cnn2c(NCc3ccccc3-n3cccn3)nc(-c3ccc(Cl)c(C4CCNCC4)c3)nc12 [Compound 170],A (A=greater than 200 fold)

# Same assay, conditions: CDK7 over CDK2
row,Structure (SMILES),CDK2/CDK7: Selectivity of CDK7 inhibition over CDK2 inhibition
1,CC(C)c1cnn2c(NCc3ccccc3Nc3ccccc3)nc(N3CCC(N)CC3)nc12 [Compound 61],"B (B=less than 200 fold, but greater than 20 fold)"
2,CC(C)c1cnn2c(NCc3ccccc3-c3cc4ccccc4[nH]3)nc(OC3CCN(C)CC3)nc12 [Compound 115],"B (B=less than 200 fold, but greater than 20 fold)"
3,CC(C)c1cnn2c(NCc3ccccc3N(C)c3ccccc3)nc(N3CCC(N)CC3)nc12 [Compound 63],"B (B=less than 200 fold, but greater than 20 fold)"
4,CC(C)c1cnn2c(NCc3ccccc3-n3cccn3)nc(-c3ccc(Cl)c(C4CCNCC4)c3)nc12 [Compound 170],"B (B=less than 200 fold, but greater than 20 fold)"

# Same assay, conditions: CDK7 over CDK5
row,Structure (SMILES),CDK5/CDK7: Selectivity of CDK7 inhibition over CDK5 inhibition
1,CC(C)c1cnn2c(NCc3ccccc3Nc3ccccc3)nc(N3CCC(N)CC3)nc12 [Compound 61],C (C=less than 20 fold)
2,CC(C)c1cnn2c(NCc3ccccc3-c3cc4ccccc4[nH]3)nc(OC3CCN(C)CC3)nc12 [Compound 115],"B (B=less than 200 fold, but greater than 20 fold)"
3,CC(C)c1cnn2c(NCc3ccccc3N(C)c3ccccc3)nc(N3CCC(N)CC3)nc12 [Compound 63],"B (B=less than 200 fold, but greater than 20 fold)"
4,CC(C)c1cnn2c(NCc3ccccc3-n3cccn3)nc(-c3ccc(Cl)c(C4CCNCC4)c3)nc12 [Compound 170],"B (B=less than 200 fold, but greater than 20 fold)"

# Same assay, conditions: read-out: CDK7 enzymatic activity (IC50 range)
row,IC50 [µM],Structure (SMILES)
1,< 0.1,CC(C)c1cnn2c(NCc3ccccc3Nc3ccccc3)nc(N3CCC(N)CC3)nc12 [Compound 61]
2,< 0.1,CC(C)c1cnn2c(NCc3ccccc3-c3cc4ccccc4[nH]3)nc(OC3CCN(C)CC3)nc12 [Compound 115]
3,< 0.1,CC(C)c1cnn2c(NCc3ccccc3N(C)c3ccccc3)nc(N3CCC(N)CC3)nc12 [Compound 63]
4,< 0.1,CC(C)c1cnn2c(NCc3ccccc3-n3cccn3)nc(-c3ccc(Cl)c(C4CCNCC4)c3)nc12 [Compound 170]
